Patent US20230391745A1, “SMALL MOLECULE DEGRADERS OF THE BROMODOMAIN AND PHD FINGER TRANSCRIPTION FACTOR” (Regents of the University of Minnesota, priority 2022, published 2023)
Like-named read-outs stand apart in the source and are kept apart here.

How the values were obtained:
[1] = molecular target: T1, CECR2 bromodomain (Homo sapiens, UniProt Q9BXF3); experiment: AlphaScreen assay with CECR2 bromodomain and biotinylated histone H4 KAc5,8,12,16 peptide; type: binding
T1 construct: His; purchased Reaction Biology RD-11-210

[2] = molecular target: T2, BRD9 bromodomain (Homo sapiens, UniProt Q9H8M2); experiment: AlphaScreen assay with BRD9 bromodomain and biotinylated histone H4 KAc5,8,12,16 peptide; type: binding
T2 construct: His; purchased Reaction Biology RD-11-214
T2 sequence (Q9H8M2 136-240 limits assumed): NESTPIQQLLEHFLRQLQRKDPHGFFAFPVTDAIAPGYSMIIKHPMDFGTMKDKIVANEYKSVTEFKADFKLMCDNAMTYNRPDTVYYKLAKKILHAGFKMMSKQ

[3] = molecular target: T3, BPTF bromodomain (Homo sapiens, UniProt Q12830); experiment: AlphaScreen assay with BPTF bromodomain and biotinylated histone H4 KAc5,8,12,16 peptide; type: binding; settings: average of two technical replicates with N = 3 unless otherwise indicated, read-out: BPTF BD IC50
T3 construct: His9-tagged BPTF bromodomain was expressed and purified as described previously; His9; made in house
Procedure: General procedure for AlphaScreen assay. His9-tagged BPTF bromodomain was expressed and purified as described previously. […] The AlphaScreen assay procedures were adapted from the manufacturers protocol (PerkinElmer, USA). […] The biotinylated Histone H4 KAc5,8,12,16 peptide was purchased from EpiCypher (Cat. #12-0034), with the sequence:
Ac-SGRGK(Ac)GGK(Ac)GLGK(Ac)GGAK(Ac)RHRKVLR-Peg(Biot).
All reagents were diluted in the assay buffer (50 mM HEPES-Na^+ (ChemImpex), 100 mM NaCl (SigmaAldrich), 0.05% CHAPS (RPI), 0.1% BSA (SigmaAldrich), pH 7.4).
3-fold serial dilutions were prepared with varying concentrations of the compounds and a fixed protein concentration, keeping the final DMSO concentration at 0.25%. […] 5 μL of the biotinylated peptide solution was then added to the wells. 10 μL of pre-mixed nickel chelate acceptor beads and streptavidin donor beads were added to each well under low light conditions (<100 lux), to a final concentration of 20 μg/mL. The plate was sealed and incubated for 30 minutes in the dark. It was then read in AlphaScreen mode (excitation time=100 ms, integration time=300 ms, output: counts/s) using a Tecan Spark plate reader. Each compound was run in two technical replicates and the data was normalized against 0 μM inhibitor signal to obtain the % normalized AlphaScreen signal. IC50 values were calculated in GraphPad Prism 9 using a sigmoidal 4-parameter logistic (4PL) curve fit.
To validate our chosen exit vectors, an AlphaScreen assay was used to measure binding affinity of our degraders with the BPTF bromodomain.

[4] = molecular target: T4, GST-PCAF and His-tagged CRBN-DDB1 (Homo sapiens, UniProt Q92831+Q96SW2); experiment: In vitro AlphaScreen ternary complex assay, PCAF; type: binding; settings: His-CRBN-DDB1, varying degrader concentrations
T4 construct: GST-tagged bromodomains (BPTF, BRD9, CECR2 and PCAF) and His-tagged CRBN; purchased Reactive Biology Corp RD-11-259
Procedure: (§1) General procedure for in vitro ternary complex assay. His-tagged CRBN-DDB1 protein was prepared following the procedure reported by Matyskiela et al. GST-BPTF was purchased from BPS Biosciences (cat #31134), while GST-BRD9, GST-CECR2, and GST-PCAF were purchased from Reactive Biology Corp (cat #RD-11-187, cat #RD-11-194, and cat #RD-11-259 respectively). All reagents were diluted in assay buffer comprising 25 mM HEPES, pH 7.4, 100 mM NaCl, 0.1% BSA, and 0.05% tween20. An ECHO 650 (Labcyte Inc.) acoustic dispenser was used to generate a 10-point dilution curve from DMSO stocks of the degraders directly into a 384-well OptiPlate (PerkinElmer, Cat. #6007290) giving a final DMSO concentration of 0.3%. AlphaScreen glutathione coated donor and nickel chelate acceptor beads were purchased from PerkinElmer (Cat. #6765300 and 6760141 respectively).
(§2) Briefly, to a 384-well OptiPlate containing 5× degrader in triplicate was added 5 μL of a 5× solution of His-CRBN-DDB1 and GST-tagged bromodomain and then incubated at rt for 1 h. After incubation, 10 μL nickel chelate acceptor (20 μL/mL final concentration) and 10 μL glutathione donor beads (20 μL/mL final concentration) were added. The plate was sealed and mixed on a MixMate (eppendorf) for 1 h at rt and then luminescence detection was collected on an Envision plate reader (PerkinElmer).
(§3) In vitro ternary complex formation via AlphaScreen. The stability of the ternary complex is critical for degradation by heterobifunctional molecules. A ternary complex formation in vitro using an AlphaScreen-based assay (FIG. 3A) was therefore studied. In this experiment, anti-GST donor beads and nickel acceptor beads were paired with GST-tagged bromodomains (BPTF, BRD9, CECR2 and PCAF) and His-tagged CRBN. The AlphaScreen signal was measured at varying degrader concentrations and the amplitude of the maximum point on the curve was used as an indicator of ternary complex stability.

[5] = molecular target: T5, Nluc-BRD9-FL fusion construct (Homo sapiens, UniProt Q96SW2+Q9H8M2); experiment: Degradation of Nluc-BRD9-FL construct by total donor luminescence; settings: similar conditions as BPTF study (1 μM, 6 h), HEK293T cells
Text: (§4) In-cell ternary complex formation and degradation of full-length BRD9 via NanoBRET. […] Degradation of the Nluc-BRD9-FL construct was monitored under similar conditions as our BPTF study.

[6] = molecular target: T6, GST-CECR2 and His-tagged CRBN-DDB1 (Homo sapiens, UniProt Q96SW2+Q9BXF3); experiment: In vitro AlphaScreen ternary complex assay, CECR2; type: binding; settings: GST-CECR2, His-CRBN-DDB1, varying degrader concentrations
T6 construct: GST-tagged bromodomains (BPTF, BRD9, CECR2 and PCAF) and His-tagged CRBN; purchased Reactive Biology Corp RD-11-194
Procedure: as §1, §2, §3

[7] = molecular target: T7, Nluc-BPTF-BD fusion construct (Homo sapiens, UniProt Q12830+Q96SW2); experiment: In-cell NanoBRET CRBN ternary complex assay with Nluc-BPTF-BD; type: cell-based; settings: for BRET ratio, fold increase over DMSO (in-cell ternary complex formation): 1 μM degrader, C-terminal Nluc-BPTF-BD fusion, HEK293T cells; for Ternary complex formation with C-terminal Nluc/BPTF-BD fusion construct / Ternary complex formation with N-terminal Nluc/BPTF-BD fusion construct: 1 μM for 2 h, HEK293T cells pre-treated with MG-132
T7 construct: form ternary complexes with nanoluciferase-fused BPTF bromodomain and full-length BRD9 constructs; expressed in transfected cells; host or cells: HEK293T
Procedure: In-cell NanoBRET assay. NanoBRET experiments were carried out using the NanoBRET CRBN Ternary Complex Starter Kit (Cat #ND2720) according to the manufacturer's protocol (Promega NanoBRET™ CRBN Ternary Complex Assay TM615).^38 All assays were run in 384-well format. HEK293T cells were transfected to a 1:100 donor:acceptor (Nluc:Halotag vectors) ratio for both BPTF-BD and BRD9-FL vectors (see supporting information for the design of plasmids). Cells were re-plated, treated with the HaloTag 618 Ligand and treated with compounds as described in the manufacturer's procedure.
Cell culture. HEK293T cells were grown in a humidified 5% CO2 environment at 37° C. Cells were cultured in DMEM media (high-glucose, Gibco Cat. #11965-092) supplemented with 10% fetal-bovine serum (Cellgro Cat. #QB-110-001-101), Penicillin-Streptomycin (50 U/mL penicillin, 50 μg/mL streptomycin, Cellgro Cat. #15140-122). The cells were passaged to a 1:20 dilution by decanting suspended cells and dissociating adherent cells from cell culture flasks in 0.25% trypsin/EDTA (Gibco, Cat. #25200056) after 1 min incubation.
In-cell ternary complex formation and degradation of BPTF-BD via NanoBRET. After establishing in vitro ternary complex formation, a NanoBRET ternary complex assay was optimized to rank-order degraders in cells (FIG. 4A). This assay also serves as an indirect indicator of cellular permeability, which is often a major challenge for heterobifunctional degraders. Both N- and C-terminal fusions of Nanoluciferase (Nluc) and BPTF-BD with 11-amino acid linkers were designed. The vectors were transfected into HEK293T cells and compounds 4 and 5 were dosed at 1 μM for 2 h in cells pre-treated with the proteosome inhibitor MG-132. […] The C-terminal Nluc-BPTF-BD fusion construct was therefore used for subsequent experiments. Degraders were tested for ternary complex formation at 1 μM (FIG. 4B).

[8] = molecular target: T8, GST-BRD9 and His-tagged CRBN-DDB1 (Homo sapiens, UniProt Q96SW2+Q9H8M2); experiment: In vitro AlphaScreen ternary complex assay, BRD9; type: binding; settings: GST-BRD9, His-CRBN-DDB1, varying degrader concentrations
T8 construct: GST-tagged bromodomains (BPTF, BRD9, CECR2 and PCAF) and His-tagged CRBN; purchased Reactive Biology Corp RD-11-187
Procedure: as §1, with “AlphaScreen glutathione coated donor and nickel chelate acceptor beads were purchased from PerkinElmer (Cat. #6765300 and 6760141 respectively).” left out
as §2, with “After incubation, 10 μL nickel chelate acceptor (20 μL/mL final concentration) and 10 μL glutathione donor beads (20 μL/mL final concentration) were added.” left out
In vitro ternary complex formation via AlphaScreen. […] The AlphaScreen signal was measured at varying degrader concentrations and the amplitude of the maximum point on the curve was used as an indicator of ternary complex stability.

[9] = molecular target: T5, Nluc-BRD9-FL fusion construct; experiment: In-cell NanoBRET CRBN ternary complex assay with full-length BRD9; settings: HEK293T cells
Text: as §4

[10] = AlphaScreen, average of two technical replicates with N = 2 unless otherwise indicated, read-out: CECR2 BD IC50
[11] = AlphaScreen, average of two technical replicates with N = 2 unless otherwise indicated, read-out: BRD9 BD IC50

T4 sequence (Q92831 723-827 limits assumed): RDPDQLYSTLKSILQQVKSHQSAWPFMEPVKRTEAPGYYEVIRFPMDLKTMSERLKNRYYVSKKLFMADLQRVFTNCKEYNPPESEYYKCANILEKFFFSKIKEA
T4 sequence (Q96SW2 40-442 limits assumed): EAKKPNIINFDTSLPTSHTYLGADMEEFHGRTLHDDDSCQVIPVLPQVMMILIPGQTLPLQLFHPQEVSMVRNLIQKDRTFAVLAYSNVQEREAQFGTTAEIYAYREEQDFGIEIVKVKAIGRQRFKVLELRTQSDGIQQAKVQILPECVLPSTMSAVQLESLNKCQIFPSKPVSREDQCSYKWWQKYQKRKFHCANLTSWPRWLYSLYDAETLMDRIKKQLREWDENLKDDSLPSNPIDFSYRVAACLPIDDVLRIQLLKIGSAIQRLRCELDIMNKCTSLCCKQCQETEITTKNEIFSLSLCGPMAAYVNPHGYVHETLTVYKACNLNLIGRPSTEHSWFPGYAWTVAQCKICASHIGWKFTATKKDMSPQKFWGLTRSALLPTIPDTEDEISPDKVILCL
T4 sequence (Q16531 whole entry partner): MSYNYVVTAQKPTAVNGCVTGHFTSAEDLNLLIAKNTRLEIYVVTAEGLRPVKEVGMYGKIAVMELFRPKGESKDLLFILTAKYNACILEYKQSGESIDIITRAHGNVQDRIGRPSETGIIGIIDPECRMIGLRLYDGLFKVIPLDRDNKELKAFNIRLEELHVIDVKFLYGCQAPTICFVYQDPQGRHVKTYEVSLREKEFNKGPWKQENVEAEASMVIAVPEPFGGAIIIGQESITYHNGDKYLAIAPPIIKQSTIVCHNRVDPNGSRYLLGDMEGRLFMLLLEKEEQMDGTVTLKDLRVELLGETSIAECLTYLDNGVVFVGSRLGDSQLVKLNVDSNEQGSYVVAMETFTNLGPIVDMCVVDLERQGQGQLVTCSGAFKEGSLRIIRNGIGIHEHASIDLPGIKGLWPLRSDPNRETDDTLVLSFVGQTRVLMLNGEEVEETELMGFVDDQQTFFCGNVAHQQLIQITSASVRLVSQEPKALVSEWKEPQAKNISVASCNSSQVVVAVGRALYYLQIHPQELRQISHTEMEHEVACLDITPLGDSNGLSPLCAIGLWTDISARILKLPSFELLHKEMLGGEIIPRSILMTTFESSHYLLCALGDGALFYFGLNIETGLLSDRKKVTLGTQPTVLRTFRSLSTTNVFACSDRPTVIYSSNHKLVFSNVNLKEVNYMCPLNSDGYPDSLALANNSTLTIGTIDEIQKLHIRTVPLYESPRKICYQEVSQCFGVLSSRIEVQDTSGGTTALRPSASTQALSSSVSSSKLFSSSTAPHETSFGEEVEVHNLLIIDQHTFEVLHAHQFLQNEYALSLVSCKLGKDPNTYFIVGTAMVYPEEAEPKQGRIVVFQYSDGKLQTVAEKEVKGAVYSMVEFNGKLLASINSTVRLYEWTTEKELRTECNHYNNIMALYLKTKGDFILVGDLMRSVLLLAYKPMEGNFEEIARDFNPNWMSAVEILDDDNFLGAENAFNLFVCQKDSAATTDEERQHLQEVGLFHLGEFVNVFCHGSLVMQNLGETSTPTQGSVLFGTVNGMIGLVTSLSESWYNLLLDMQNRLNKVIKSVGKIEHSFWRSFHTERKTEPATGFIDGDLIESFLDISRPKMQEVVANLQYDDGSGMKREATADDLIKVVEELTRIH
T7 sequence (Q16531 whole entry, the tested form may be a part): as the sequence (Q16531 whole entry partner) above
T7 sequence (Q96SW2 whole entry, the tested form may be a part): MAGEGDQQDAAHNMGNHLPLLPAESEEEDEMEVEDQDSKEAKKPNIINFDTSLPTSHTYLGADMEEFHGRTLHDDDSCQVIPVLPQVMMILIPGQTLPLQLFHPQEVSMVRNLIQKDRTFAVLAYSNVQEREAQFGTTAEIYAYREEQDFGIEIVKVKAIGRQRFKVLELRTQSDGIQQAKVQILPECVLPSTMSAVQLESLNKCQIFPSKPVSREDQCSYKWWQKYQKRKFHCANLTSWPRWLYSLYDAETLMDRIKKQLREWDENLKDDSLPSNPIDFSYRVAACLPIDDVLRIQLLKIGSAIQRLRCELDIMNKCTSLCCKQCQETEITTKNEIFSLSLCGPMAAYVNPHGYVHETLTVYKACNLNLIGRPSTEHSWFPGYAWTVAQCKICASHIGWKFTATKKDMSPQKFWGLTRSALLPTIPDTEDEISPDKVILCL
T5 sequence (Q9H8M2 whole entry, the tested form may be a part): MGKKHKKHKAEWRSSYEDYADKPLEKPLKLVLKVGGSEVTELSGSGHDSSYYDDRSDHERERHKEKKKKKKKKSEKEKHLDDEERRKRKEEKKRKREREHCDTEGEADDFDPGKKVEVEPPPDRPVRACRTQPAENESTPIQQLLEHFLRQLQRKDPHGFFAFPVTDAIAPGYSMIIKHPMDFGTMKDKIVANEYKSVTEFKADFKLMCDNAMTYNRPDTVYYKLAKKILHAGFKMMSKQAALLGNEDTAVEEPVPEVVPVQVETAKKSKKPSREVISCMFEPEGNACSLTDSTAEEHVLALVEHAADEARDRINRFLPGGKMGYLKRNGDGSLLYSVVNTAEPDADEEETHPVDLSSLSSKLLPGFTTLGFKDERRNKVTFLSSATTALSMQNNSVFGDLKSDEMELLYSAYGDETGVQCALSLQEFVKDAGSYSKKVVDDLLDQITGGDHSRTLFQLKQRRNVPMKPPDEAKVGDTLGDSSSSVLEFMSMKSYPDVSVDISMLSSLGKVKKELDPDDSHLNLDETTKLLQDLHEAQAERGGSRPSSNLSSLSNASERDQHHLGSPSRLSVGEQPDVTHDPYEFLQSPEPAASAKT
T5 sequence (Q96SW2 whole entry, the tested form may be a part): as the sequence (Q96SW2 whole entry, the tested form may be a part) above
T5 sequence (Q16531 whole entry partner, the tested form may be a part): as the sequence (Q16531 whole entry partner) above
T1 sequence (Q9BXF3 434-538 limits assumed): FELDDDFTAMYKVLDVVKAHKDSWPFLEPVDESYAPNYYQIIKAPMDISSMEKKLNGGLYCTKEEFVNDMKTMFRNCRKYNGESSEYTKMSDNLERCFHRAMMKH
T6 sequence (Q9BXF3 434-538 limits assumed): as above
T6 sequence (Q96SW2 40-442 limits assumed): as the sequence (Q96SW2 40-442 limits assumed) above
T6 sequence (Q16531 whole entry partner): as the sequence (Q16531 whole entry partner) above
T8 sequence (Q96SW2 40-442 limits assumed, one chain of several): as the sequence (Q96SW2 40-442 limits assumed) above
T8 sequence (Q16531 whole entry partner, one chain of several): as the sequence (Q16531 whole entry partner) above

Work on `Cn1ncc(Nc2ccc3c(c2)CNCC3)c(Cl)c1=O` [Compound 2] yielded an IC50 [1, 10] of 1300 nM and an IC50 [2, 11] of 300 nM.
For `Cn1ncc(Nc2ccc3c(c2)CCN(CCOCCOCCNC(=O)COc2cccc4c2C(=O)N(C2CCC(=O)NC2=O)C4=O)C3)c(Cl)c1=O` (stereo not drawn) [Compound 5, N-(2-(2-(2-(6-((5-chloro-1-methyl-6-oxo-1,6-dihydropyridazin-4-yl)amino)-3,4-dihydroisoquinolin-2(1H)-yl)ethoxy)ethoxy)ethyl)-2-((2-(2,6-dioxopiperidin-3-yl)-1,3-dioxoisoindolin-4-yl)oxy)acetamide], the IC50 [3] was 70 ± 23 nM, the “Ternary complex formation with PCAF (AlphaScreen signal amplitude)” value (from here on “Ternary complex formation with PCAF”) [4] was “less stable ternary complexes” and the IC50 [1, 10] was 225 nM. For the same compound, the “Degradation of the Nluc-BRD9-FL construct” value [5] was “caused degradation of full-length BRD9, comparable to the dBRD9 control”, the “Ternary complex formation with CECR2 (AlphaScreen signal amplitude)” value (from here on “Ternary complex formation with CECR2”) [6] was “less stable ternary complexes” and the IC50 [2, 11] was 63 nM. For the same compound, the “BRET ratio, fold increase over DMSO (in-cell ternary complex formation)” value (shortened to “BRET ratio, fold increase over DMSO”) [7] was 2.3 fold, the “Ternary complex formation with C-terminal Nluc/BPTF-BD fusion construct” value [7] was “showed ternary complex formation” and the “Ternary complex formation with N-terminal Nluc/BPTF-BD fusion construct” value [7] was “did not”.
`Cn1ncc(Nc2ccc3c(c2)CCNC3)c(Cl)c1=O` [Compound 1] was tested, and the IC50 [1] was 1670 nM and the IC50 [2] was 556 nM.
In the case of `Cn1ncc(Nc2ccc3c(c2)CN(CCOCCOCCNC(=O)COc2cccc4c2C(=O)N(C2CCC(=O)NC2=O)C4=O)CC3)c(Cl)c1=O` (stereo not drawn) [Compound 6, N-(2-(2-(2-(7-((5-chloro-1-methyl-6-oxo-1,6-dihydropyridazin-4-yl)amino)-3,4-dihydroisoquinolin-2(1H)-yl)ethoxy)ethoxy)ethyl)-2-((2-(2,6-dioxopiperidin-3-yl)-1,3-dioxoisoindolin-4-yl)oxy)acetamide], the IC50 [3] is reported as 121 ± 38 nM, the “Ternary complex formation with PCAF” value [4] is reported as “less stable ternary complexes” and the IC50 [1, 10] is reported as 1460 nM. The “Ternary complex formation with CECR2” value [6] was “less stable ternary complexes”, the IC50 [2, 11] was 18 nM and the “BRET ratio, fold increase over DMSO” value [7] was 1.6 fold.
With `Cn1ncc(Nc2ccc3c(c2)CCN(CCCCCCNC(=O)COc2cccc4c2C(=O)N(C2CCC(=O)NC2=O)C4=O)C3)c(Cl)c1=O` (stereo not drawn) [Compound 3] the IC50 [3] was 24 ± 9 nM, the “Ternary complex formation with BRD9 (AlphaScreen signal amplitude)” value [8] was “drop in signal” and the “Ternary complex formation with PCAF” value [4] was “drop in signal”. The IC50 [1, 10] was 53 nM, the “Ternary complex formation with CECR2” value [6] was “drop in signal” and the IC50 [2, 11] was 21 nM. For the same compound, the “BRET ratio, fold increase over DMSO” value [7] was 3.5 fold.
In the case of `CN(C)CCCOc1ccc(-c2cc(NCCCn3cccn3)nc(S(C)(=O)=O)n2)cc1` [Compound 7, TP-238, reference compound], the IC50 [3] is reported as 430 nM and the IC50 [1, 10] is reported as 33 nM.
For `Cn1ncc(Nc2ccc3c(c2)CN(CCCCCCNC(=O)COc2cccc4c2C(=O)N(C2CCC(=O)NC2=O)C4=O)CC3)c(Cl)c1=O` (stereo not drawn) [Compound 4, N-(6-(7-((5-chloro-1-methyl-6-oxo-1,6-dihydropyridazin-4-yl)amino)-3,4-dihydroisoquinolin-2(1H)-yl)hexyl)-2-((2-(2,6-dioxopiperidin-3-yl)-1,3-dioxoisoindolin-4-yl)oxy)acetamide], the IC50 [3] was 158 ± 55 nM, the “Ternary complex formation with BRD9 (AlphaScreen signal amplitude)” value [8] was “promiscuous” and the “Ternary complex formation with PCAF” value [4] was “promiscuous”. For the same compound, the IC50 [1, 10] was 485 nM, the “Degradation of the Nluc-BRD9-FL construct” value [5] was “caused degradation of full-length BRD9, comparable to the dBRD9 control” and the “Ternary complex formation with CECR2” value [6] was “promiscuous”. The “BRET ratio, fold over DMSO control (in-cell ternary complex formation)” value [9] was roughly 2 fold, the IC50 [2, 11] was 98 nM and the “BRET ratio, fold increase over DMSO” value [7] was 3.2 fold. The “Ternary complex formation with C-terminal Nluc/BPTF-BD fusion construct” value [7] was “showed ternary complex formation” and the “Ternary complex formation with N-terminal Nluc/BPTF-BD fusion construct” value [7] was “did not”.
